Reference: patent EP0535626A1, “Use of 4-amino-1-(2-pyridyl)piperidines as anti-convulsivant and anti-epileptic agents” (SANOFI, priority 1991, dated 1993)

Assays:
[1] = test system: convulsions provoquées par électrochoc; test: Electroshock-induced convulsions test in mice; type: in vivo, souris; conditions: Mus musculus, ip, 0.5 h; Swiss female mice, intraperitoneal 30 minutes before the shock (12 volts, 0,4 secondes, corneal electrodes); read-out: DE₅₀ (doses protégeant 50% des animaux)
Excerpt: (§1) La nouvelle activité anticonvulsivante des composés de formule (I), a été mise en évidence en évaluant les effets des composés (I) dans le test des convulsions provoquées par électrochoc chez la souris et dans le test des convulsions provoquées par le pentylénététrazole chez la souris selon la méthode décrite par C.S. Goodman, M. Singh Grewal, W.C. Brown et E.A. Swinyard dans J. Pharmacol. Exp. Ther. 108, 168-176, (1953).
(§2) Pour ces tests on a utilisé des souris Swiss femelles d'un poids corporel de 22 à 26 g, réparties en lot de 10 animaux chacun. Une semaine avant l'expérimentation, chaque lot de 10 a été mis en cage, gardé dans une pièce à température constante (21°C ± 1°C), en cycle jour/nuit, avec nourriture et boisson à volonté. Les produits de formule (I) à tester ainsi que le pentylénététrazole ont été mis en solution dans de l'eau distillée. Le volume d'injection des produits utilisés a été de 0,4 ml pour 20 g de poids corporel. • · Convulsions provoquées par le pentylénététrazole. Les composés de formule (I) ont été administrés par voie intrapéritonéale 30 minutes avant l'administration par voie intrapéritonéale de 130 mg/kg de pentylénététrazole (dose nécessaire pour que 80% des souris contrôlées présentent une crise convulsive). […]

[2] = test system: convulsions provoquées par le pentylénététrazole; test: Pentylenetetrazole-induced convulsions test in mice; type: in vivo, souris; conditions: Mus musculus, ip, 0.5 h; Swiss female mice, intraperitoneal 30 minutes before 130 mg/kg pentylénététrazole intraperitoneal; read-out: DE₅₀ (doses protégeant 50% des animaux)
Excerpt: as §1, §2

NC1CCN(c2cccc(Cl)n2)CC1 [4-amino-1-(6-chloro-2-pyridyl)pipéridine]
ED50 [1]: < 3 mg/kg
ED50 [2]: < 10 mg/kg
